This passage reports Rate of inhibition results from ChEMBL document CHEMBL1147590, “Synthesis and antitumor activity of s-tetrazine derivatives” (Bioorg Med Chem Lett, 2004).

One test has as its system A549. The test can be described thus: In vitro rate of inhibition of A-549 tumor cell growth at 10E-8 mol/L. Type of test: functional, Homo sapiens. The settings on record: at 0.01 µM.
The compound `CC1=NN(C(=O)Nc2cccc(N(C)C)c2)C(C)=NN1C(=O)Nc1cccc(N(C)C)c1` came in with a Rate of inhibition of 69.3%.

Consider `Clc1cccc(-c2nnc(-c3cccc(Cl)c3)nn2)c1`, for which the Rate of inhibition is 0%.

`CCCCC1NN(C(C)=O)C(CCCC)NN1C(C)=O` (stereo not given) gave a Rate of inhibition of 0%.

In turn, `Cc1ccc(-c2nnc(-c3ccc(C)cc3)nn2)cc1` displayed a Rate of inhibition of 0%.

On to `CCCCCOC(=O)N1N=C(C)N=NC1C` (stereo not given), for which the Rate of inhibition was found to be 7.6%.

The compound `CCCC1=NN(C(=O)Nc2ccccc2)C(CCC)=NN1C(=O)Nc1ccccc1` returned a Rate of inhibition of 2.5%.

`CCCC1=NN(C(=O)OCC)C(CCC)N=N1` (stereo not given) yielded a Rate of inhibition of 0%.

The next test deals with P388. In words: In vitro rate of inhibition of P388 tumor cell growth at 10E-5 mol/L. The test is classed as functional, Mus musculus. The note with it: at 10 µM.
As to `CC1=NN(C(=O)Nc2cccc(N(C)C)c2)C(C)=NN1C(=O)Nc1cccc(N(C)C)c1`, the Rate of inhibition is on record as 84.3%.

In the case of `Clc1cccc(-c2nnc(-c3cccc(Cl)c3)nn2)c1`, the Rate of inhibition stood at 26.5%.

For the compound `CCCCC1NN(C(C)=O)C(CCCC)NN1C(C)=O` (stereo not given), the Rate of inhibition turned out to be 0%.

`Cc1ccc(-c2nnc(-c3ccc(C)cc3)nn2)cc1` returned a Rate of inhibition of 8.3%.

For `CCCCCOC(=O)N1N=C(C)N=NC1C` (stereo not given), the Rate of inhibition is on record as 19.8%.

Compound `CCCC1=NN(C(=O)Nc2ccccc2)C(CCC)=NN1C(=O)Nc1ccccc1` showed a Rate of inhibition of 61.5%.

In the case of `CCCC1=NN(C(=O)OCC)C(CCC)N=N1` (stereo not given), the Rate of inhibition is given as 15%.

In the next test the test system is A549. In words: In vitro rate of inhibition of A-549 tumor cell growth at 10E-4 mol/L. The test is classed as functional, Homo sapiens. The settings on record: at 100 µM.
`CC1=NN(C(=O)Nc2cccc(N(C)C)c2)C(C)=NN1C(=O)Nc1cccc(N(C)C)c1` registered a Rate of inhibition of 93.2%.

The compound `Clc1cccc(-c2nnc(-c3cccc(Cl)c3)nn2)c1` returned a Rate of inhibition of 0%.

Compound `CCCCC1NN(C(C)=O)C(CCCC)NN1C(C)=O` (stereo not given) registered a Rate of inhibition of 47.6%.

On to `Cc1ccc(-c2nnc(-c3ccc(C)cc3)nn2)cc1`, for which the Rate of inhibition came out at 90.3%.

`CCCCCOC(=O)N1N=C(C)N=NC1C` (stereo not given) showed a Rate of inhibition of 22.8%.

With `CCCC1=NN(C(=O)Nc2ccccc2)C(CCC)=NN1C(=O)Nc1ccccc1`, the Rate of inhibition is listed as 56.6%.

Consider `CCCC1=NN(C(=O)OCC)C(CCC)N=N1` (stereo not given), for which the Rate of inhibition is 12.5%.

In a further test the test system is A549. The test can be described thus: In vitro rate of inhibition of A-549 tumor cell growth at 10E-6 mol/L. Type of test: functional, Homo sapiens. The note with it: at 1 µM.
The compound `CC1=NN(C(=O)Nc2cccc(N(C)C)c2)C(C)=NN1C(=O)Nc1cccc(N(C)C)c1` gave a Rate of inhibition of 80.7%.

As to `Clc1cccc(-c2nnc(-c3cccc(Cl)c3)nn2)c1`, the Rate of inhibition is listed as 0%.

For `CCCCC1NN(C(C)=O)C(CCCC)NN1C(C)=O` (stereo not given), the Rate of inhibition is listed as 6.4%.

`Cc1ccc(-c2nnc(-c3ccc(C)cc3)nn2)cc1`: the Rate of inhibition turned out to be 0%.

As for `CCCCCOC(=O)N1N=C(C)N=NC1C` (stereo not given), the Rate of inhibition stood at 0%.

For `CCCC1=NN(C(=O)Nc2ccccc2)C(CCC)=NN1C(=O)Nc1ccccc1`, the Rate of inhibition is recorded as 48.3%.

`CCCC1=NN(C(=O)OCC)C(CCC)N=N1` (stereo not given) returned a Rate of inhibition of 0%.

The next test concerns A549. The test can be described thus: In vitro rate of inhibition of A-549 tumor cell growth at 10E-5 mol/L. Type of test: functional, Homo sapiens. The settings on record: at 10 µM.
Consider `CC1=NN(C(=O)Nc2cccc(N(C)C)c2)C(C)=NN1C(=O)Nc1cccc(N(C)C)c1`, for which the Rate of inhibition is 83%.

`Clc1cccc(-c2nnc(-c3cccc(Cl)c3)nn2)c1` came in with a Rate of inhibition of 0%.

The compound `CCCCC1NN(C(C)=O)C(CCCC)NN1C(C)=O` (stereo not given) gave a Rate of inhibition of 13.1%.

`Cc1ccc(-c2nnc(-c3ccc(C)cc3)nn2)cc1` displayed a Rate of inhibition of 17%.

In turn, `CCCCCOC(=O)N1N=C(C)N=NC1C` (stereo not given) yielded a Rate of inhibition of 4.6%.

On to `CCCC1=NN(C(=O)Nc2ccccc2)C(CCC)=NN1C(=O)Nc1ccccc1`, for which the Rate of inhibition was determined as 78.3%.

Compound `CCCC1=NN(C(=O)OCC)C(CCC)N=N1` (stereo not given) showed a Rate of inhibition of 0%.

The subject of a further test is P388. The test can be described thus: In vitro rate of inhibition of P388 tumor cell growth at 10E-8 mol/L. Type of test: functional, Mus musculus. The settings on record: at 0.01 µM.
`CC1=NN(C(=O)Nc2cccc(N(C)C)c2)C(C)=NN1C(=O)Nc1cccc(N(C)C)c1`: the Rate of inhibition turned out to be 90.7%.

Consider `Clc1cccc(-c2nnc(-c3cccc(Cl)c3)nn2)c1`, for which the Rate of inhibition is on record as 4.3%.

`CCCCC1NN(C(C)=O)C(CCCC)NN1C(C)=O` (stereo not given) showed a Rate of inhibition of 0%.

`Cc1ccc(-c2nnc(-c3ccc(C)cc3)nn2)cc1`: the Rate of inhibition came out at 4.5%.

In turn, `CCCCCOC(=O)N1N=C(C)N=NC1C` (stereo not given) gave a Rate of inhibition of 0%.

The compound `CCCC1=NN(C(=O)Nc2ccccc2)C(CCC)=NN1C(=O)Nc1ccccc1` came in with a Rate of inhibition of 4.1%.

Take `CCCC1=NN(C(=O)OCC)C(CCC)N=N1` (stereo not given): the Rate of inhibition worked out at 3.6%.

The next test has as its system P388. In words: In vitro rate of inhibition of P388 tumor cell growth at 10E-7 mol/L. Type of test: functional, Mus musculus. The note with it: at 0.1 µM.
In turn, `CC1=NN(C(=O)Nc2cccc(N(C)C)c2)C(C)=NN1C(=O)Nc1cccc(N(C)C)c1` gave a Rate of inhibition of 88.9%.

In turn, `Clc1cccc(-c2nnc(-c3cccc(Cl)c3)nn2)c1` showed a Rate of inhibition of 13.5%.

With `CCCCC1NN(C(C)=O)C(CCCC)NN1C(C)=O` (stereo not given), the Rate of inhibition amounted to 0%.

Consider `Cc1ccc(-c2nnc(-c3ccc(C)cc3)nn2)cc1`, for which the Rate of inhibition amounted to 2.4%.

As to `CCCCCOC(=O)N1N=C(C)N=NC1C` (stereo not given), the Rate of inhibition is recorded as 0%.

`CCCC1=NN(C(=O)Nc2ccccc2)C(CCC)=NN1C(=O)Nc1ccccc1` showed a Rate of inhibition of 4.4%.

Consider `CCCC1=NN(C(=O)OCC)C(CCC)N=N1` (stereo not given), for which the Rate of inhibition was determined as 5%.

In the next test the test system is A549. The test can be described thus: In vitro rate of inhibition of A-549 tumor cell growth at 10E-7 mol/L. The test is classed as functional, Homo sapiens. The note with it: at 0.1 µM.
The compound `CC1=NN(C(=O)Nc2cccc(N(C)C)c2)C(C)=NN1C(=O)Nc1cccc(N(C)C)c1` returned a Rate of inhibition of 73.9%.

Regarding `Clc1cccc(-c2nnc(-c3cccc(Cl)c3)nn2)c1`, the Rate of inhibition came out at 0%.

In turn, `CCCCC1NN(C(C)=O)C(CCCC)NN1C(C)=O` (stereo not given) registered a Rate of inhibition of 4.8%.

The compound `Cc1ccc(-c2nnc(-c3ccc(C)cc3)nn2)cc1` displayed a Rate of inhibition of 0%.

On to `CCCCCOC(=O)N1N=C(C)N=NC1C` (stereo not given), for which the Rate of inhibition was determined as 1.1%.

As to `CCCC1=NN(C(=O)Nc2ccccc2)C(CCC)=NN1C(=O)Nc1ccccc1`, the Rate of inhibition came out at 6.1%.

Take `CCCC1=NN(C(=O)OCC)C(CCC)N=N1` (stereo not given): the Rate of inhibition amounted to 0%.

For another test, the system named is P388. The test can be described thus: In vitro rate of inhibition of P388 tumor cell growth at 10E-4 mol/L. Type of test: functional, Mus musculus. The note with it: at 100 µM.
For `CC1=NN(C(=O)Nc2cccc(N(C)C)c2)C(C)=NN1C(=O)Nc1cccc(N(C)C)c1`, the Rate of inhibition was 95.4%.

For `Clc1cccc(-c2nnc(-c3cccc(Cl)c3)nn2)c1`, the Rate of inhibition was 40.3%.

For `CCCCC1NN(C(C)=O)C(CCCC)NN1C(C)=O` (stereo not given), the Rate of inhibition turned out to be 37.9%.

Compound `Cc1ccc(-c2nnc(-c3ccc(C)cc3)nn2)cc1` yielded a Rate of inhibition of 56.4%.

In the case of `CCCCCOC(=O)N1N=C(C)N=NC1C` (stereo not given), the Rate of inhibition is recorded as 42.6%.

The compound `CCCC1=NN(C(=O)Nc2ccccc2)C(CCC)=NN1C(=O)Nc1ccccc1` gave a Rate of inhibition of 85.4%.

`CCCC1=NN(C(=O)OCC)C(CCC)N=N1` (stereo not given) registered a Rate of inhibition of 35.4%.

The subject of a further test is P388. In words: In vitro rate of inhibition of P388 tumor cell growth at 10E-6 mol/L. The settings on record: at 1 µM. Type of test: functional, Mus musculus.
In turn, `CC1=NN(C(=O)Nc2cccc(N(C)C)c2)C(C)=NN1C(=O)Nc1cccc(N(C)C)c1` had a Rate of inhibition of 89.8%.

On to `Clc1cccc(-c2nnc(-c3cccc(Cl)c3)nn2)c1`, for which the Rate of inhibition is reported as 33.2%.

In the case of `CCCCC1NN(C(C)=O)C(CCCC)NN1C(C)=O` (stereo not given), the Rate of inhibition is listed as 0%.

Take `Cc1ccc(-c2nnc(-c3ccc(C)cc3)nn2)cc1`: the Rate of inhibition was 4.4%.

Regarding `CCCCCOC(=O)N1N=C(C)N=NC1C` (stereo not given), the Rate of inhibition turned out to be 7.3%.

The compound `CCCC1=NN(C(=O)Nc2ccccc2)C(CCC)=NN1C(=O)Nc1ccccc1` registered a Rate of inhibition of 22.8%.

For the compound `CCCC1=NN(C(=O)OCC)C(CCC)N=N1` (stereo not given), the Rate of inhibition was 2.2%.
